Measurements reported in patent US7893074B2, “2, 4-pyrimidinediamines useful in the treatment of neoplastic diseases, inflammatory and immune system disorders” (Novartis AG, priority 2003, dated 2011).
Where two headings read alike, the source gives them in different places.

Key:
[1] = system: Mouse mammary carcinoma 4T1 cells; assay: Anchorage-independent tumor cell growth assay; type: cell-based
Protocol: Cells are cultured for 2 h and inhibitors are added at various concentrations in a final concentration of 0.1% DMSO. After 48 h, cell growth is assayed with the cell counting kit-8 (Wako Pure Chemical), which uses a water soluble tetrazolium salt WST8. Twenty μL of the reagent is added into each well and cells are further cultured for 2 h. The optical density is measured at 450 nm.

T Cell = T Cell Migration; type: cell-based
FAK = FAK (Mus musculus, UniProt P34152); assay: Phos IC50 (phosphorylation); type: cell-based
Sequence of FAK (P34152 2-1052): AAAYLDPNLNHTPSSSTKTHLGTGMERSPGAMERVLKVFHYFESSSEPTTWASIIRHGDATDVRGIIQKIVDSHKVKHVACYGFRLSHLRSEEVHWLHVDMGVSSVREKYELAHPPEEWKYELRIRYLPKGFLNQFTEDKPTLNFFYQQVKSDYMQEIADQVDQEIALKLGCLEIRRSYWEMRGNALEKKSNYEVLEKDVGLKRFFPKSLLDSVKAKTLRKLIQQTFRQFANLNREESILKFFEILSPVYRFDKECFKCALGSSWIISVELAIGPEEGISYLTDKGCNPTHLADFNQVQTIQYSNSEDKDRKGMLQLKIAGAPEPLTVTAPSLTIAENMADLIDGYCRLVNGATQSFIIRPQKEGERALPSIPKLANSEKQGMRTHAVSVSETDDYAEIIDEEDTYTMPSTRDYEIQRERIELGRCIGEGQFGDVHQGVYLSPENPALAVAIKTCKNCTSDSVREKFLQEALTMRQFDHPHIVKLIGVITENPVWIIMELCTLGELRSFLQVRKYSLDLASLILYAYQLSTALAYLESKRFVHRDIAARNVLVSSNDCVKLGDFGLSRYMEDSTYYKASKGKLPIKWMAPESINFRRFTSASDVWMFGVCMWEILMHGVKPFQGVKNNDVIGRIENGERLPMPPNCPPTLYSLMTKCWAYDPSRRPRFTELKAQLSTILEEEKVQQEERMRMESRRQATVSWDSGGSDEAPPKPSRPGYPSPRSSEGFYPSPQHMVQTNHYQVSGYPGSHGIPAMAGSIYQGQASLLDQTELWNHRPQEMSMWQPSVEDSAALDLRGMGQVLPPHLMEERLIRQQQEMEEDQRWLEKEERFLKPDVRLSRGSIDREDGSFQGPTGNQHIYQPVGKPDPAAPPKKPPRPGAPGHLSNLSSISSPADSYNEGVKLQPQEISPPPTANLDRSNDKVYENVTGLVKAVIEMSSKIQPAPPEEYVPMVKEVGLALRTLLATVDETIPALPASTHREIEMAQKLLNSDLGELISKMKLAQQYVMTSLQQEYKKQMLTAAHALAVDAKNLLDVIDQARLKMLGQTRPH

[2] = target: Focal Adhesion Kinase (FAK) (Homo sapiens, UniProt Q05397); assay: FAK assay system (Focal Adhesion Kinase inhibition); type: biochemical
Sequence of Focal Adhesion Kinase (FAK) (Q05397 384-706): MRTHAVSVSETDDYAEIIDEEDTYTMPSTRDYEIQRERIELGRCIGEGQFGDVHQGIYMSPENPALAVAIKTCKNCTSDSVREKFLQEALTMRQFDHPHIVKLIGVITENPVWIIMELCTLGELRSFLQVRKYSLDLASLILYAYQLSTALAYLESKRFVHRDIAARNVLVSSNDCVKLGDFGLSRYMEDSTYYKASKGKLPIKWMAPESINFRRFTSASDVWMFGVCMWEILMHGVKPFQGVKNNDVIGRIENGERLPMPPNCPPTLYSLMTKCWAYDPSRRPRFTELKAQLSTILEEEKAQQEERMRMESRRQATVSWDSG

IGF-IR = IGF-IR (Homo sapiens, UniProt P08069); assay: Cellular Capture ELISA of IGF-I induced autophosphorylation of the IGF-IR; type: cell-based; settings: read-out: IGF-1R IC50
Sequence of IGF-IR (P08069 31-1367): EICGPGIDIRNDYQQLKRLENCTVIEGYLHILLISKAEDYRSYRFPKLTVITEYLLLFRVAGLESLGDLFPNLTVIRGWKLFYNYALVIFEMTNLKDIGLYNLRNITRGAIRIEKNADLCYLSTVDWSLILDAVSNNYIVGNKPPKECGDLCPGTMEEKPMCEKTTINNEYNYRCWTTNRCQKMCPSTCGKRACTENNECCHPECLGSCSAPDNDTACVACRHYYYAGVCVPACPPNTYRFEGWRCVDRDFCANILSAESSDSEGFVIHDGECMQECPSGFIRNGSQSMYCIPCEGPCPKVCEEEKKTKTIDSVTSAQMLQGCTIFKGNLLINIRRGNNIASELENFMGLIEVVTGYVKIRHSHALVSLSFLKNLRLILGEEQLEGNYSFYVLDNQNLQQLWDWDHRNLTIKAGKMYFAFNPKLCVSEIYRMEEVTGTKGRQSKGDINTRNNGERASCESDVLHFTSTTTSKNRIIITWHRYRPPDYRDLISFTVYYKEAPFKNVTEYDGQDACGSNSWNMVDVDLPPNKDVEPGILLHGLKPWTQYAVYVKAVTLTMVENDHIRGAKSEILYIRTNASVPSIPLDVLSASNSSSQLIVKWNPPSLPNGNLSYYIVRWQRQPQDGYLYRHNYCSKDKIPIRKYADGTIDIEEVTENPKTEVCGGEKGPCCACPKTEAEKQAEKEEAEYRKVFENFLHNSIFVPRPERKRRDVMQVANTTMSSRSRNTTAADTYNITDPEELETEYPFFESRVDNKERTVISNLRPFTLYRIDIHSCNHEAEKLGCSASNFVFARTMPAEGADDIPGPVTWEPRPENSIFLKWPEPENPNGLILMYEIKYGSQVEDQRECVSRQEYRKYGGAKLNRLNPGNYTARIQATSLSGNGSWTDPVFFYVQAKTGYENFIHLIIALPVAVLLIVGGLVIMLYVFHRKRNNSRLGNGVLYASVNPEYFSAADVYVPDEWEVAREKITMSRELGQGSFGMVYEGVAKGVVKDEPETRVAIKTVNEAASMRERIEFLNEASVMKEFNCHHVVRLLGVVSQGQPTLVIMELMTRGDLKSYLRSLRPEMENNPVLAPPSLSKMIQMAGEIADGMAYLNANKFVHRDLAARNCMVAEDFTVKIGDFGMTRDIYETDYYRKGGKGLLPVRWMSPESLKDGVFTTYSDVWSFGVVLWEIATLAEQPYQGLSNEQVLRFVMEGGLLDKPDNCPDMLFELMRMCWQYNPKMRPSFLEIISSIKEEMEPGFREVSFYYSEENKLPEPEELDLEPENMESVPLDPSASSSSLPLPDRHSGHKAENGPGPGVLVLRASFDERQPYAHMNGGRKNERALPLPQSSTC
Protocol: In this assay the activity of the compounds of the invention against Insulin-like growth factor I (IGF-I) induced autophosphorylation of the IGF-IR is determined.

Row | Structure (SMILES) | IC50 [1] [nM] | IC50 (T Cell) [nM] | IC50 ([1]; Mus musculus, 4T1) [nM] | IC50 (FAK) [nM] | IC50 ([2]; read-out: FAK IC50) [nM] | IC50 (IGF-IR) [nM] | IC50 (T Cell; T-cell) [nM] | IC50 ([2]; FAK IC50) [nM]
1 | CNS(=O)(=O)c1ccccc1Nc1nc(Nc2ccc(N3CCC(N4CCCCC4)CC3)cc2OC)ncc1Cl [Example 20-8] | 50 | 290 |  |  |  |  |  | 
2 | COc1cc(N2CCC(N3CCN(C)CC3)CC2)ccc1Nc1ncc(Cl)c(Nc2ccccc2S(=O)(=O)NC(C)C)n1 [Example 19-4] |  |  | 340 | 200 | 1.6 | 140 |  | 
3 | CNS(=O)(=O)c1ccccc1Nc1nc(Nc2cc(OCCCN3CCOCC3)ccc2OC)ncc1Br [Example 3-73] |  |  | 290 | 30 | 11 | 1630 |  | 
4 | CCCCS(=O)(=O)c1ccccc1Nc1nc(Nc2ccc(N3CCOCC3)cc2OC)ncc1Cl [Example 34-1] |  |  | 370 | 100 | 8 | 280 |  | 
5 | CNS(=O)(=O)c1ccccc1Nc1nc(Nc2ccccc2OC(F)(F)F)ncc1Cl [Example 20-3] |  |  | 2500 | 400 | 42 | 2780 |  | 
6 | CCCS(=O)(=O)c1ccccc1Nc1nc(Nc2cc(N3CCN(C(C)=O)CC3)ccc2OC)ncc1Cl [Example 26-15] |  |  | 80 | 1200 | 6.9 | 70 |  | 
7 | CNC(=O)c1ccccc1Nc1nc(Nc2ccc(N3CCC(N(C)C)C3)cc2OC)ncc1Cl (stereo not drawn) [Example 7-11] |  |  | 1200 | 600 | 2.5 | 770 |  | 
8 | CNS(=O)(=O)c1ccccc1Nc1nc(Nc2cc(OC)ccc2OC)ncc1Br [Example 3-15] |  |  | 800 | 20 | 7 | 940 |  | 
9 | COc1cc(N2CCCC(C(N)=O)C2)ccc1Nc1ncc(Cl)c(Nc2ccccc2S(=O)(=O)C(C)C)n1 (stereo not drawn) [Example 28-1] |  |  | 460 | 300 | 12 | 300 |  | 
10 | CNS(=O)(=O)c1ccccc1Nc1nc(Nc2cc(-c3ccc(OC)cc3)ccc2C)ncc1Br [Example 3-25] |  |  | 300 | 300 | 22 | 810 |  | 
11 | CCCS(=O)(=O)c1ccccc1Nc1nc(Nc2ccc(N3CCOCC3)cc2OC)ncc1Cl [Example 26-1] |  |  | 350 | 50 | 4.4 | 290 |  | 
12 | CNS(=O)(=O)c1cc(F)ccc1Nc1nc(Nc2ccc(N3CCOCC3)cc2OC)ncc1Br [Example 52, 2-[5-Bromo-2-(2-methoxy-4-morpholin-4-yl-phenylamino)-pyrimidin-4-ylamino]-5-fluoro-N-methyl-benzenesulfonamide] |  |  | 410 | 200 | 13 | < 80 |  | 
13 | CCCS(=O)(=O)c1ccccc1Nc1nc(Nc2ccc(OC3CCN(C)CC3)cc2OC)ncc1Cl [Example 26-26] |  |  | 70 | 200 | 1.9 | 340 |  | 
14 | CNS(=O)(=O)c1ccccc1Nc1nc(Nc2ccc(N3CCCC(C(N)=O)C3)cc2OC)ncc1Br (stereo not drawn) [Example 3-68] |  |  | 630 |  |  |  | 1000 | 5.5
15 | CNC(=O)c1ccccc1Nc1nc(Nc2ccc(N3CCC(N4CCN(C)CC4)CC3)cc2OC)ncc1Cl [Example 7-14] |  |  | 360 | 300 | 7.6 | 330 |  | 

More lines, in order of falling IC50 ([1]; Mus musculus, 4T1), values ahead:

Row | IC50 [1] [nM] | IC50 (T Cell) [nM] | IC50 ([1]; Mus musculus, 4T1) [nM] | IC50 (FAK) [nM] | IC50 ([2]; read-out: FAK IC50) [nM] | IC50 (IGF-IR) [nM] | Structure (SMILES) | IC50 (T Cell; T-cell) [nM] | IC50 ([2]; FAK IC50) [nM]
16 |  |  | 2200 | 700 | 13 | 90 | CCC(CC)S(=O)(=O)c1ccccc1Nc1nc(Nc2ccc(N3CCOCC3)cc2OC)ncc1Cl [Example 29-1] |  | 
17 |  |  | 540 | 600 | 4.7 | 190 | CNC(=O)c1ccccc1Nc1nc(Nc2ccc(N3CCC(N4CCCCC4)CC3)cc2OC)ncc1Cl [Example 7-1] |  | 
18 |  |  | 370 | 50 | 5.9 | 120 | COc1cc(N2CCOCC2)ccc1Nc1ncc(Cl)c(Nc2ccccc2S(=O)(=O)CC(C)C)n1 [Example 32-2] |  | 
19 |  |  | 240 | 100 |  |  | CNS(=O)(=O)c1ccccc1Nc1nc(Nc2cc(N3CCN(C(C)=O)CC3)ccc2OC)ncc1Br [Example 3-34] | 130 | 
20 |  |  | 150 | 90 | 6.6 | 260 | COc1cc(N2CCOCC2)ccc1Nc1ncc(Cl)c(Nc2ccccc2S(=O)(=O)NCC(C)C)n1 [Example 22-3] |  | 
21 |  |  | 130 | 400 | 3 | 640 | COc1cc(OC2CCN(C)CC2)ccc1Nc1ncc(Cl)c(Nc2ccccc2S(=O)(=O)NC2CCCC2)n1 [Example 25-2] |  | 
22 |  |  | 90 | 300 | 1.4 | 180 | CCCS(=O)(=O)c1ccccc1Nc1nc(Nc2ccc(N3CCN(C(C)C)CC3)cc2OC)ncc1Cl [Example 26-23] |  | 
